Laboratory results taken from PubChem BioAssay (NCI).
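Step 1: Grow cells in 96-well plates. Step 2: Expose to compound for 48 hours at 5 concentrations. Step 3: Interpolate endpoints linearly; if unreached, use highest concentration. GI50 = concentration required for 50% inhibition of growth. The concentration for full growth arrest is given as TGI.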

Assays:
Assay in all cases: inhibition of tumour cell growth, NCI panel, 48 h
IGROV1 ovarian = tested on: IGROV1 ovarian
SN12C renal = tested on: SN12C renal
HOP-62 NSCLC = tested on: HOP-62 NSCLC
U251 CNS = tested on: U251 CNS
UACC-257 melanoma = tested on: UACC-257 melanoma
SK-MEL-5 melanoma = tested on: SK-MEL-5 melanoma
SR leukemia = tested on: SR leukemia
BT-549 breast = tested on: BT-549 breast
RXF 393 renal = tested on: RXF 393 renal
KM12 colon = tested on: KM12 colon
OVCAR-5 ovarian = tested on: OVCAR-5 ovarian
COLO 205 colon = tested on: COLO 205 colon
CAKI-1 renal = tested on: CAKI-1 renal
TK-10 renal = tested on: TK-10 renal
NCI/ADR-RES ovarian = tested on: NCI/ADR-RES ovarian
SF-268 CNS = tested on: SF-268 CNS
RPMI-8226 leukemia = tested on: RPMI-8226 leukemia
SK-MEL-2 melanoma = tested on: SK-MEL-2 melanoma
A549 NSCLC = tested on: A549 NSCLC
HL-60(TB) leukemia = tested on: HL-60(TB) leukemia
A498 renal = tested on: A498 renal
MALME-3M melanoma = tested on: MALME-3M melanoma
LOX IMVI melanoma = tested on: LOX IMVI melanoma
SF-295 CNS = tested on: SF-295 CNS
NCI-H226 lung = tested on: NCI-H226 lung
EKVX NSCLC = tested on: EKVX NSCLC
M14 melanoma = tested on: M14 melanoma
HOP-92 NSCLC = tested on: HOP-92 NSCLC
PC-3 prostate = tested on: PC-3 prostate

COc1cc(OC)c(S(N)(=O)=O)cc1C(=O)/C=C/c1ccc(Cl)cc1
GI50 (IGROV1 ovarian): 2.95 µM | TGI (IGROV1 ovarian): 12.3 µM | GI50 (SN12C renal): 2.48 µM | TGI (SN12C renal): 12.6 µM | GI50 (HOP-62 NSCLC): 2.58 µM | TGI (HOP-62 NSCLC): 6.59 µM | GI50 (U251 CNS): 2.18 µM | TGI (U251 CNS): 6.48 µM | GI50 (UACC-257 melanoma): 5.46 µM | TGI (UACC-257 melanoma): 22.7 µM | GI50 (SK-MEL-5 melanoma): 4.93 µM | TGI (SK-MEL-5 melanoma): 16.9 µM | GI50 (SR leukemia): 2.11 µM | TGI (SR leukemia): 7.84 µM | GI50 (BT-549 breast): 1.25 µM | TGI (BT-549 breast): 2.73 µM | GI50 (RXF 393 renal): 1.62 µM | TGI (RXF 393 renal): 3.34 µM | GI50 (KM12 colon): 1.82 µM | TGI (KM12 colon): 7.06 µM | GI50 (OVCAR-5 ovarian): 3.18 µM | TGI (OVCAR-5 ovarian): 11.5 µM | GI50 (COLO 205 colon): 1.66 µM | TGI (COLO 205 colon): 3.13 µM | GI50 (CAKI-1 renal): 1.89 µM | TGI (CAKI-1 renal): 10.5 µM | GI50 (TK-10 renal): 2.91 µM | TGI (TK-10 renal): 8.89 µM | GI50 (NCI/ADR-RES ovarian): 3.97 µM | TGI (NCI/ADR-RES ovarian): > 100 µM | GI50 (SF-268 CNS): 3.75 µM | TGI (SF-268 CNS): 26.1 µM | GI50 (RPMI-8226 leukemia): 1.86 µM | TGI (RPMI-8226 leukemia): 6.33 µM | GI50 (SK-MEL-2 melanoma): 11.5 µM | TGI (SK-MEL-2 melanoma): 25.6 µM | GI50 (A549 NSCLC): 3.17 µM | TGI (A549 NSCLC): 14.2 µM | GI50 (HL-60(TB) leukemia): 1.91 µM | TGI (HL-60(TB) leukemia): 8.88 µM | GI50 (A498 renal): 18.6 µM | TGI (A498 renal): 34 µM | GI50 (MALME-3M melanoma): 2.79 µM | TGI (MALME-3M melanoma): 8.51 µM | GI50 (LOX IMVI melanoma): 0.733 µM | TGI (LOX IMVI melanoma): 2.51 µM | GI50 (SF-295 CNS): 3.88 µM | TGI (SF-295 CNS): 12.5 µM | GI50 (NCI-H226 lung): 2.56 µM | TGI (NCI-H226 lung): 8.86 µM | GI50 (EKVX NSCLC): 3.88 µM | TGI (EKVX NSCLC): 22.3 µM | GI50 (M14 melanoma): 1.47 µM | TGI (M14 melanoma): 3.14 µM | GI50 (HOP-92 NSCLC): 1.46 µM | TGI (HOP-92 NSCLC): 4.92 µM | GI50 (PC-3 prostate): 1.6 µM
